Ends that are not written are not given here.
Tests used:
Type in all cases: cell-based, mouse
[1] = tested on: T2K^d cells loaded with SPARC K^d peptide; assay: Cr-release assay of peptide-induced killer T cells on peptide-loaded T2K^d cells; settings: T2K^d cells loaded with the SPARC K^d peptide; 4 hours co-culture; CTL from BM-DC-immunized BALB/c mice
Experimental: (§1) Bone marrow-derived dendritic cells (BM-DC) were induced from bone marrow cells derived from BALBc bone marrow by using GM-CSF as described previously by us (Nakatsura, T et al., Clin Cancer Res 10, 8630-8640, 2004). Thus the obtained BM-DC were cultured with a mixture of the 4 types of peptides selected as described above at a concentration of 10 μM for 2 hours, and the peptide-pulsed BM-DC (5×10^5 cells) were then intraperitoneally administered to each mouse. After an interval of 1 week, the same peptide-pulsed BM-DC were administered to the mouse twice, so that the mouse was strongly immunized. Thereafter, the spleen cells of the mouse were recovered and induction of killer T cells was evaluated. In order to strictly analyze induction of killer T cells derived from CD8^+ T cells, after collection of the spleen, CD4^+ T cells were eliminated from the collected spleen cells, using MACS beads, and the remaining cells were then used for analysis.
(§2) The following protocols were used for generation and characterization of SPARC-specific killer T cells (The day of recovering the spleen cells from the immunized mouse was defined as Day 0.) • Day-21 (1) GM-CSF was added to the bone marrow cells of a BALB/c mouse, so as to start induction of bone marrow-derived dendritic cells (hereinafter referred to as BM-DC). • Day-14 (2) A mixture of the 4 types of SPARC peptides was added to the induced BM-DC, and 2 hours later, 5×10^5 cells were intraperitoneally administered to each mouse. • Steps (1) and (2) were repeated twice every other week. • Day 0 The spleen cells of the immunized BALB/c mouse were recovered. The cells were co-cultured with BM-DC prepulsed with each SPARC peptide for 2 hours. […]
(§3) The cytotoxic activity of the induced SPARC-specific killer T cells on tumor cells was analyzed as follows. […] Thereafter, a culture supernatant was recovered, and the amount of radioactive Cr released from dead cells was quantified, so that cytotoxic activity was detected.

[2] = tested on: Meth A cell line; assay: Cr-release assay of peptide-induced killer T cells on Meth A cells; settings: spontaneously expressing SPARC, 4 hours co-culture
Experimental: as §1, §2, §3

[3] = tested on: BALB/3T3 cell line; assay: Cr-release assay of peptide-induced killer T cells on BALB/3T3 cells; settings: BALB/3T3, spontaneously expressing SPARC; 4 hours co-culture
Experimental: as §1, §2, §3

Measured: Cytotoxicity of induced killer T cells (Cr release)

EFPLRMRDWL [SPARC- K^d-3, EFPLRMRDWL]
cytotoxicity was observed: all assays above

DYIGPCKYI [SPARC- K^d-1, DYIGPCKYI]
cytotoxicity was observed: all assays above

MYIFPVHWQF [SPARC- K^d-4, MYIFPVHWQF]
cytotoxicity was observed: all assays above

Reference: patent US8470968B2, “SPARC-derived tumor rejection antigenic peptides and medicaments comprising the same” (Onco Therapy Science, Inc., priority 2006, dated 2013)
